The text below walks through data of patent US20230312587A1, “PTERIDINONE COMPOUNDS AND USES THEREOF” (Vertex Pharmaceutical Incorporated, priority 2018, published 2023).

Read-outs that look alike come from different tables or passages of the source.

For the assay, the system named is β-catenin-TCF-mediated reporter transcription activity in Colo 205 cells. As to the kind of experiment: Colo 205 reporter assay (TCF/LEF luciferase). The format is cell-based. The settings on record: Colo 205 TCF/LEF luciferase reporter, five hours after addition of compound, read-out: TCF reporter Colo205 IC50. The text has this:
The compounds of the invention described herein were screened using the assay procedure for β-catenin-TCF-mediated reporter transcription activity described below.
Reporter cell lines were generated by stably transfecting cells of cancer cell lines (e.g., colon cancer) with a plasmid reporter construct (From SABiosciences, a QIAGEN company) that includes TCF/LEF promoter driving expression of the firefly luciferase gene. TCF/LEF reporter constructs were made in which TCF/LEF promoter, a promoter with optimal number of TCF/LEF binding sites designed by SABiosceinces, was linked upstream of the firefly luciferase gene. This construct could also include a puromycin resistance gene as a selectable marker. This construct could also be used to stably transfect Colo 205 cells, a colon cancer cell line having a mutated APC gene that causes a constitutively active β-catenin. A control cell line was generated using another plasmid construct containing the luciferase gene under the control of a CMV basal promoter which is not activated by p-catenin.
Colo 205 Cultured cells with a stably transfected reporter construct were plated at approximately 10,000 cells per well into 384 well multi-well plates for twenty four hours. The testing compounds were then added to the wells in 2-fold serial dilutions using a twenty micromolar top concentration. A series of control wells for each cell type received only compound solvent. Five hours after the addition of compound, reporter activity for luciferase was assayed, by addition of the SteadyGlo luminescence reagent (Promega). The reporter luminescence activity was measured using Pherastar plate reader (BMG Labtech). Readings were normalized to DMSO only treated cells, and normalized activities were then used in the IC50 calculations. The Colo 205 reporter assay data are summarized in Table 45: A<0.3 μM; 0.3 μM≤B<1.0 μM; 1.0 μM≤C<5.0 μM; D≥5.0 μM
Colo 205 reporter assay data has also been obtained for certain R-isomers of Formula (I) wherein R^4 is —H or -D, and wherein the carbon to which R^3 and R^4 are attached (C2 carbon of Formula (X)) has R stereochemistry; such epimeric compounds are represented using the suffix “B” attached to the Compound described herein having the S stereochemistry at the carbon to which R^3 and R^4 are attached: […]
For orientation: In a reporter assay the amount or activity of a reporter protein is the signal.

On to `O=C1Nc2cnc(NCc3cnn(Cc4ccc(F)cc4)c3)nc2N[C@H]1CCO` [Compound 11, (7S)-2-(((1-(4-Fluorobenzyl)-1H-pyrazol-4-yl)methyl)amino)-7-(2-hydroxyethyl)-7,8-dihydropteridin-6(5H)-one], for which the IC50 (commonly the midpoint of a concentration-inhibition curve) (Homo sapiens, COLO 205, 5 h) is ≥ 5000 nM.

With `Cc1nc(NCc2cnn(Cc3ccnc(N(C)C)c3)c2)nc2c1NC(=O)[C@H](C)N2C` [Compound 12, (7S)-2-(((1-((2-(dimethylamino)pyridin-4-yl)methyl)-1H-pyrazol-4-yl)methyl)amino)-4,7,8-trimethyl-7,8-dihydropteridin-6(5H)-one], where the note is “Homo sapiens, COLO 205, 5 h”, the IC50 was in the range of 300 to 1000 nM.

Regarding `O=C1Nc2cnc(NCc3cnn(CCc4ccc(F)cc4)c3)nc2N[C@H]1CCO` [Compound 13, (7S)-2-(((1-(4-fluorophenethyl)-1H-pyrazol-4-yl)methyl)amino)-7-(2-hydroxyethyl)-7,8-dihydropteridin-6(5H)-one], the IC50 (Homo sapiens, COLO 205, 5 h) was ≥ 5000 nM.

For `Cc1nc(NCc2cnn(Cc3cc(F)c(F)cc3F)c2)nc2c1N(C)C(=O)[C@H](C)N2C` [Compound 16, (7S)-4,5,7,8-tetramethyl-2-(((1-(2,4,5-trifluorobenzyl)-1H-pyrazol-4-yl)methyl)amino)-7,8-dihydropteridin-6(5H)-one], the IC50 (Homo sapiens, COLO 205, 5 h) was < 300 nM.

Consider `Cc1nc(NCc2cnn(Cc3ccc(F)c(F)c3F)c2)nc2c1N(C)C(=O)[C@H](C)N2C` [Compound 17, (7S)-4,5,7,8-tetramethyl-2-(((1-(2,3,4-trifluorobenzyl)-1H-pyrazol-4-yl)methyl)amino)-7,8-dihydropteridin-6(5H)-one], for which, under “Homo sapiens, COLO 205, 5 h”, the IC50 was < 300 nM.

As for `Cc1nc(NCc2cnn(Cc3c(F)cc(F)cc3F)c2)nc2c1N(C)C(=O)[C@H](C)N2C` [Compound 18, (7S)-4,5,7,8-tetramethyl-2-(((1-(2,4,6-trifluorobenzyl)-1H-pyrazol-4-yl)methyl)amino)-7,8-dihydropteridin-6(5H)-one], the IC50 (Homo sapiens, COLO 205, 5 h) was < 300 nM.

Turning to `CO[C@H](C)[C@H]1C(=O)N(C)c2cnc(NCc3cnn(Cc4ccc(F)cc4)c3)nc2N1C` [Compound 20, (7S)-2-(((1-(4-fluorobenzyl)-1H-pyrazol-4-yl)methyl)amino)-7-((R)-1-methoxyethyl)-5,8-dimethyl-7,8-dihydropteridin-6(5H)-one], the IC50 (Homo sapiens, COLO 205, 5 h) is 300 to 1000 nM.

With `CO[C@H](C)[C@H]1C(=O)N(C)c2cnc(NCc3cnn(Cc4cc(F)c(F)c(F)c4)c3)nc2N1C` [Compound 21, (7S)-7-((R)-1-methoxyethyl)-5,8-dimethyl-2-(((1-(3,4,5-trifluorobenzyl)-1H-pyrazol-4-yl)methyl)amino)-7,8-dihydropteridin-6(5H)-one], the IC50 (Homo sapiens, COLO 205, 5 h) was < 300 nM.

Take `C#CC[C@H]1C(=O)N(C)c2cnc(NCc3cnn(Cc4cc(F)c(F)c(F)c4)c3)nc2N1C` [Compound 25, (7S)-5,8-dimethyl-7-(prop-2-yn-1-yl)-2-(((1-(3,4,5-trifluorobenzyl)-1H-pyrazol-4-yl)methyl)amino)-7,8-dihydropteridin-6(5H)-one]: the IC50 (Homo sapiens, COLO 205, 5 h) was < 300 nM.

As to `C#CC[C@H]1C(=O)N(C)c2cnc(NCc3cnn(Cc4ccc(F)cc4)c3)nc2N1C` [Compound 26, (7S)-2-(((1-(4-fluorobenzyl)-1H-pyrazol-4-yl)methyl)amino)-5,8-dimethyl-7-(prop-2-yn-1-yl)-7,8-dihydropteridin-6(5H)-one], for the setting “Homo sapiens, COLO 205, 5 h”, the IC50 is < 300 nM.

Regarding `C[C@H]1C(=O)N(C)c2cnc(NCc3cnn(Cc4ccc(F)cc4)c3)nc2N1C` [Compound 27, (7S)-2-(((1-(4-fluorobenzyl)-1H-pyrazol-4-yl)methyl)amino)-5,7,8-trimethyl-7,8-dihydropteridin-6(5H)-one], under “Homo sapiens, COLO 205, 5 h”, the IC50 fell in the range of 300 to 1000 nM.

Take `Cc1nc(NCc2cnn(Cc3ccc(F)c(F)c3)c2)nc2c1N(C)C(=O)[C@H](C)N2C` [Compound 28, (7S)-2-(((1-(3,4-difluorobenzyl)-1H-pyrazol-4-yl)methyl)amino)-4,5,7,8-tetramethyl-7,8-dihydropteridin-6(5H)-one]: for the setting “Homo sapiens, COLO 205, 5 h”, the IC50 was < 300 nM.

Turning to `Cc1nc(NCc2cnn(Cc3ccc(F)cc3F)c2)nc2c1N(C)C(=O)[C@H](C)N2C` [Compound 29, (7S)-2-(((1-(2,4-difluorobenzyl)-1H-pyrazol-4-yl)methyl)amino)-4,5,7,8-tetramethyl-7,8-dihydropteridin-6(5H)-one], the IC50 (Homo sapiens, COLO 205, 5 h) is < 300 nM.

Consider `CCN1C(=O)[C@H](C)N(CC)c2nc(NCc3cnn(Cc4cc(F)c(F)c(F)c4)c3)ncc21` [Compound 31, (7S)-5,8-diethyl-7-methyl-2-(((1-(3,4,5-trifluorobenzyl)-1H-pyrazol-4-yl)methyl)amino)-7,8-dihydropteridin-6(5H)-one], for which, where the note is “Homo sapiens, COLO 205, 5 h”, the IC50 is < 300 nM.

Take `CC[C@H]1C(=O)N(C)c2cnc(NCc3cnn(Cc4cc(F)c(F)c(F)c4)c3)nc2N1CC(F)(F)F` [Compound 33, (7S)-7-ethyl-5-methyl-2-(((1-(3,4,5-trifluorobenzyl)-1H-pyrazol-4-yl)methyl)amino)-8-(2,2,2-trifluoroethyl)-7,8-dihydropteridin-6(5H)-one]: the IC50 (Homo sapiens, COLO 205, 5 h) fell in the range of 300 to 1000 nM.

As for `CCN1C(=O)[C@](C)(CC)N(CC)c2nc(NCc3cnn(Cc4cc(F)c(F)c(F)c4)c3)ncc21` [Compound 35, (7S)-5,7,8-triethyl-7-methyl-2-(((1-(3,4,5-trifluorobenzyl)-1H-pyrazol-4-yl)methyl)amino)-7,8-dihydropteridin-6(5H)-one], the IC50 (Homo sapiens, COLO 205, 5 h) is < 300 nM.

As for `CC[C@H]1C(=O)N(C)c2cnc(NCc3cnn(Cc4cc(F)c(F)c(F)c4)c3)nc2N1C(C)C` [Compound 36, (7S)-7-ethyl-8-isopropyl-5-methyl-2-(((1-(3,4,5-trifluorobenzyl)-1H-pyrazol-4-yl)methyl)amino)-7,8-dihydropteridin-6(5H)-one], the IC50 (Homo sapiens, COLO 205, 5 h) is < 300 nM.

For `CCN1C(=O)[C@H](CCO)N(CC)c2nc(NCc3cnn(Cc4cc(F)c(F)c(F)c4)c3)ncc21` [Compound 37, (7S)-5,8-diethyl-7-(2-hydroxyethyl)-2-(((1-(3,4,5-trifluorobenzyl)-1H-pyrazol-4-yl)methyl)amino)-7,8-dihydropteridin-6(5H)-one], the IC50 (Homo sapiens, COLO 205, 5 h) was < 300 nM.

Consider `CCN1C(=O)[C@H](CCO)N(CC)c2nc(NCc3cnn(Cc4ccc(F)cc4)c3)ncc21` [Compound 38, (7S)-5,8-diethyl-2-(((1-(4-fluorobenzyl)-1H-pyrazol-4-yl)methyl)amino)-7-(2-hydroxyethyl)-7,8-dihydropteridin-6(5H)-one], for which the IC50 (Homo sapiens, COLO 205, 5 h) was < 300 nM.

In the case of `Cc1nc(NCc2ccc(-c3ccc(F)cc3)o2)nc2c1NC(=O)[C@H](C)N2C` [Compound 40, (7S)-2-(((5-(4-Fluorophenyl)furan-2-yl)methyl)amino)-4,7,8-trimethyl-7,8-dihydropteridin-6(5H)-one], the IC50 (Homo sapiens, COLO 205, 5 h) is 1000 to 5000 nM.

In the case of `C[C@H]1C(=O)Nc2cnc(NCc3cnn(Cc4ccc(F)cc4)c3)nc2N1C` [Compound 41, (7S)-2-(((1-(4-fluorobenzyl)-1H-pyrazol-4-yl)methyl)amino)-7,8-dimethyl-7,8-dihydropteridin-6(5H)-one], the IC50 (Homo sapiens, COLO 205, 5 h) lay in the range of 300 to 1000 nM.

Consider `C[C@H]1C(=O)Nc2cnc(NCc3ccc(-c4ccc(F)cc4)o3)nc2N1C` [Compound 43, (7S)-2-(((5-(4-fluorophenyl)furan-2-yl)methyl)amino)-7,8-dimethyl-7,8-dihydropteridin-6(5H)-one], for which the IC50 (Homo sapiens, COLO 205, 5 h) is ≥ 5000 nM.

Turning to `C[C@H]1C(=O)Nc2cnc(NCc3cnn(Cc4cccc(C(F)(F)F)c4)c3)nc2N1C` [Compound 45, (7S)-7,8-dimethyl-2-(((1-(3-(trifluoromethyl)benzyl)-1H-pyrazol-4-yl)methyl)amino)-7,8-dihydropteridin-6(5H)-one], for the setting “Homo sapiens, COLO 205, 5 h”, the IC50 is < 300 nM.

`CCN1C(=O)[C@H](CCO)N(CC)c2nc(NCc3cnn(Cc4cccc(C(F)(F)F)c4)c3)ncc21` [Compound 49, (7S)-5,8-diethyl-7-(2-hydroxyethyl)-2-(((1-(3-(trifluoromethyl)benzyl)-1H-pyrazol-4-yl)methyl)amino)-7,8-dihydropteridin-6(5H)-one]: the IC50 (Homo sapiens, COLO 205, 5 h) is < 300 nM.

In the case of `CC[C@H]1C(=O)N(C)c2cnc(NCc3cnn(Cc4ccc(F)cc4)c3)nc2N1C(C)C` [Compound 52, (7S)-7-ethyl-2-(((1-(4-fluorobenzyl)-1H-pyrazol-4-yl)methyl)amino)-8-isopropyl-5-methyl-7,8-dihydropteridin-6(5H)-one], the half-inhibitory concentration (IC50) was 300 to 1000 nM.

As for `Cc1nc(NCc2cnn(Cc3ccccc3)c2)nc2c1NC(=O)[C@H](C)N2C` [Compound 53, (7S)-2-(((1-benzyl-1H-pyrazol-4-yl)methyl)amino)-4,7,8-trimethyl-7,8-dihydropteridin-6(5H)-one], the IC50 (Homo sapiens, COLO 205, 5 h) is < 300 nM.

In the case of `Cc1nc(NCc2cnn(Cc3ccc(C#N)cc3)c2)nc2c1NC(=O)[C@H](C)N2C` [Compound 55, (7S)-4-((4-(((4,7,8-trimethyl-6-oxo-5,6,7,8-tetrahydropteridin-2-yl)amino)methyl)-1H-pyrazol-1-yl)methyl)benzonitrile], the IC50 (Homo sapiens, COLO 205, 5 h) is < 300 nM.
